Experimental data from patent US20110009332A1, “Therapeutic Treatment Of Wounds” (SOUTHWEST RESEARCH INSTITUTE, priority 2009, published 2011).
Where a SMILES comes first, the peptide text is derived from it. The star is where a group is joined. Cbz = O=C(OCc1ccccc1)*; OtBu = CC(C)(C)O*

Test system: TGF-β1
Experiment: TGF-β1 gene expression (qPCR, normalized over 18S) in human dermal fibroblasts
Type: cell-based
Method: An examination of gene expression of TFG-β1 was conducted using a number of proteasome inhibitors including, proteasome inhibitor-1, curcumin, MG-132 and bortezomib. Human neonatal dermal fibroblasts (AllCells, Catalog No. HN006001) were maintained in Dulbecco's modified Eagle's medium (DMEM) supplemented with 10% fetal bovine serum. Early passage cells were plated at 2×10^4 cells/cm^2 and grown in humidified 5% CO2 at 37° C. for 24 hours. Spent media was replaced the following day with assay media including Proteasome inhibitor-1 was added in DMEM at 1 μM and 0.1 μM. Untreated cells were used as the control group. For the human osteogenesis PCR array, the experimental group was treated only at 1 μM. In addition, in separate trials, spent media was replace by assay media of curcumin added in DMEM at 10 μM and 100 μM, MG-132 in DMEM at 0.1 μM and 1 μM, and bortezomib in DMEM at 0.1 μm and 1 μM.
Phenol-chloroform extraction was performed to isolate the total RNA for real time polymerase chain reaction array. More specifically, the total RNA was prepared using TRI REAGENT (Ambion, product number 9738), wherein the total RNA was obtained from the human neonatal dermal fibroblasts. Note that isolation was performed as per the instructions provided with the TRI REAGENT. The RNA was used for subsequent quantitative polymerase chain reaction (qPRC) gene expression of TFG-β1 measured using hydrolysis probes (TAQMAN probes available from Applied Biosystems) as described further below.
Concentration and integrity of the obtained total RNA was assessed by absorbance in a spectrophotometer at 260 nm and 280 nm and by electrophoresis in 1% agarose with formaldehyde loading dye. For TAQMAN gene expression assays, cDNA was synthesized from 2 μg of total RNA using the High Capacity cDNA Reverse Transcription Kit (Applied Biosystems, product number 4368814), again following the protocol supplied with the kit. The resulting cDNA was diluted 1:10.
For TAQMAN gene expression, gene-specific fluorescent labeled TAQMAN primers for FAM-TFG-β1 (Applied Biosystems, product number Hs00998130.m1) and TAQMAN reference VIC-18S ribosomal RNA (Applied Biosystems, product number 4310893E) were used to target the gene of interest. A cocktail of universal master mix (Applied Biosystems, product number 4369016) was prepared individually for both set of primers which contained Taq Polymerase, dNTPs, and buffer. Template cDNA's were added separately to respective individual wells in triplicate samples. PCR was performed on StepOne Plus Real Time System instrument (Applied Biosystems). The amplification program consisted of 1 cycle of 95° C. with 10 minute hold (hot start) followed by 50 cycles of 95° C. with 15 second annealing hold and 1 minute 60° C. specified acquisition hold.
For human osteogenisis PCR array, total RNA was prepared using silica matrix purification using RNEASY MINI KIT (Qiagen, product number 74101) according to the manufacturer's recommendations. cDNA was synthesized from 1 μg of purified DNA-free RNA accordingly to RT^2First Strand Kit (SABiosciences, C-03). The resulting cDNA was diluted 1:30 and amplified. The procedure for the PCR array using real-time PCR is based on the RT^2 Profiler PCR array system instructions for Human Osteogenesis (SABiosciences, product number PAHS-026C). A cocktail reaction mix was setup as recommended by the PCR manufacturer (SABiosceiences, product number PA-012). PCR was performed using the same temperature parameters as used with the StepOne Plus Real Time System instrument. The Ct value of endogenous reference gene (i.e. 18s) was used to control for input RNA and then used to normalize target gene (i.e. TFG-β1) tested from the same cDNA sample ([…]), and then calibrated to an internal reference sample ([…]). Change in gene expression was determined by the expression 2̂-([…]). […]

[1] = 0.1 μM inhibitor, FIG. 30, non-treated 1.50 (MG132) / 1.43 (bortezomib)
[2] = 1 μM inhibitor, FIG. 30, non-treated 1.50 (MG132) / 1.43 (bortezomib)

Structure (SMILES) | TFG-β1/18 mRNA levels [1] [a.u.] | TFG-β1/18 mRNA levels [2] [a.u.] | other results
CC(C)C[C@@H](C=O)NC(=O)[C@H](CC(C)C)NC(=O)[C@H](CC(C)C)NC(=O)OCc1ccccc1 [MG132] (Cbz-Leu-Leu-Leu-aldehyde) | 2.12 | 1.49 | –
COc1cc(/C=C/C(=O)CC(=O)/C=C/c2ccc(O)c(OC)c2)ccc1O [curcumin] | – | – | TFG-β1/18 mRNA levels (10 μM curcumin, FIG. 29, non-treated 1.15): 0.644 a.u.; TFG-β1/18 mRNA levels (100 μM curcumin, FIG. 29, non-treated 1.15): 1.53 a.u.
CC[C@H](C)[C@H](NC(=O)OCc1ccccc1)C(=O)N[C@@H](CCC(=O)OC(C)(C)C)C(=O)N[C@@H](C)C(=O)N[C@H](C=O)CC(C)C [PS-1, Z-Ile-Glu(OBu^t)-Ala-Leu-H] (Cbz-IE(OtBu)AL-aldehyde) | – | – | TFG-β1/18 mRNA levels (0.1 μM PS-1, FIG. 28, nontreated 1.15, decrease relatively statistically insignificant): ~1.03 a.u.; TFG-β1/18 mRNA levels (1.0 μM PS-1, FIG. 28, nontreated 1.15, decrease relatively statistically insignificant): ~1.11 a.u.
CC(C)C[C@H](NC(=O)[C@H](Cc1ccccc1)NC(=O)c1cnccn1)B(O)O [bortezomib] | 1.99 | 1.97 | –
